From ChEMBL document CHEMBL1139987 (Bioorg Med Chem Lett, 2007)

What was measured:
[1] = biological target: Insulin-like growth factor 1 receptor (Homo sapiens, UniProt P08069); experiment: Inhibition of IGF1R
MCF7 = experiment: Inhibition of IGF1 mediated cell growth in MCF7 cells; conditions: Homo sapiens
[2] = biological target: T1, Polyunsaturated fatty acid lipoxygenase ALOX15 (Homo sapiens, UniProt P16050)
T1 sequence (P16050 whole entry): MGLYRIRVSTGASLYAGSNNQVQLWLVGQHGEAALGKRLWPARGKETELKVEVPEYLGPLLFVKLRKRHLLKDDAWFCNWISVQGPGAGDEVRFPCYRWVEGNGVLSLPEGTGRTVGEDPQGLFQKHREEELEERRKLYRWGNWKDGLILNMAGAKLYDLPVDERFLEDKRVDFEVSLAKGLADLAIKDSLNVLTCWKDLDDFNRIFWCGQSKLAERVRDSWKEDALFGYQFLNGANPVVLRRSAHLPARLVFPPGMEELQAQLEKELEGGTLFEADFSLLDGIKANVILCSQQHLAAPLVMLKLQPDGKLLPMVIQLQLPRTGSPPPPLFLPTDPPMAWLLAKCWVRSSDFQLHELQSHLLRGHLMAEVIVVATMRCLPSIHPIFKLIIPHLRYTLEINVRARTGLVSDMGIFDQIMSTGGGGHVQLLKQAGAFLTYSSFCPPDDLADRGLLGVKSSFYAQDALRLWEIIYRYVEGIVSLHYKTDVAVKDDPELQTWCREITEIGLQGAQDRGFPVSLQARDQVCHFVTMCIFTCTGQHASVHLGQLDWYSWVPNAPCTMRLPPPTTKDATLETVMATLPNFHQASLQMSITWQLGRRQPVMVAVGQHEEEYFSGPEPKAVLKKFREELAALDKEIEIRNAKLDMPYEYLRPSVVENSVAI

Insulin-like growth factor 1 receptor, sequence (P08069 31-736 limits assumed): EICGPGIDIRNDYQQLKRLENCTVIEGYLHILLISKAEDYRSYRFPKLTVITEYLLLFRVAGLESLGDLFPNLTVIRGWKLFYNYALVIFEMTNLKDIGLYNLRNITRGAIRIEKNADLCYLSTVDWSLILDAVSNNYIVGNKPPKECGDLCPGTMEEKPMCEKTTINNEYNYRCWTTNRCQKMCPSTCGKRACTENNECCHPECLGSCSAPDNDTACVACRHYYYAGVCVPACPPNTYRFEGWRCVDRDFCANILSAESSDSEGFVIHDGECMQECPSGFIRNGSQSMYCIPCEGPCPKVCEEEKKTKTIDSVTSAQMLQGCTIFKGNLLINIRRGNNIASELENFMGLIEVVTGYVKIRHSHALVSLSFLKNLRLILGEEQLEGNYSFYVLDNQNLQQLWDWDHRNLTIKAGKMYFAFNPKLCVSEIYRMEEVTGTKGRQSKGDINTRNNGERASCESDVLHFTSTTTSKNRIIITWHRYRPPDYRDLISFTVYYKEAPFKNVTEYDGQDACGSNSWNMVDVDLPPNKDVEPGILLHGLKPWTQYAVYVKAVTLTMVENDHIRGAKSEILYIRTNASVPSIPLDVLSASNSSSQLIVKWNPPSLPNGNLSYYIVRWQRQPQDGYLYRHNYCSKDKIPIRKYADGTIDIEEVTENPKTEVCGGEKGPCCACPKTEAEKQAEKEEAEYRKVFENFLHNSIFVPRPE
Insulin-like growth factor 1 receptor, sequence (P08069 741-1367 limits assumed): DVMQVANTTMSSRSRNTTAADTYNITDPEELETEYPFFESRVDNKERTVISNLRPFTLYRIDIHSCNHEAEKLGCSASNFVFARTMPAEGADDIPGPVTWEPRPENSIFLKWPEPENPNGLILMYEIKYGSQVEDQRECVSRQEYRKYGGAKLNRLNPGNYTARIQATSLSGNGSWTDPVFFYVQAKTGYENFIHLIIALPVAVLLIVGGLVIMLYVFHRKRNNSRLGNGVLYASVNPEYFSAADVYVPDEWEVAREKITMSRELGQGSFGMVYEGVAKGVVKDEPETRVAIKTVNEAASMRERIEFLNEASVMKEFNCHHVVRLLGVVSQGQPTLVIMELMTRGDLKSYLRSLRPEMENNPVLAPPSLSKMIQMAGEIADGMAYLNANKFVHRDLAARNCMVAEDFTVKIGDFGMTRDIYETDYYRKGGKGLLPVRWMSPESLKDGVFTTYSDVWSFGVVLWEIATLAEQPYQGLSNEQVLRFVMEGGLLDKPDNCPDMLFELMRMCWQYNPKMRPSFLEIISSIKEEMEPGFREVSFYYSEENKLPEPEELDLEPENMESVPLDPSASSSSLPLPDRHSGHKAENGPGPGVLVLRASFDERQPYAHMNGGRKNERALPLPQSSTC

Row | SMILES | IC50 [1] [µM] | IC50 (MCF7) [µM] | IC50 [2] [µM]
1 | Cc1ccc(CCCCc2ccc(O)c(O)c2)cc1 | 0.8 | 15.1 | –
2 | Oc1ccc(CCCCc2ccc(O)c(O)c2)cc1O | 0.6 | 25.4 | 3.9
3 | Oc1ccc(CCCCc2ccccc2)cc1O | – | 11.2 | 7.3
4 | COc1ccc(CCCCc2ccc(O)c(O)c2)cc1 | – | 15.7 | –
5 | Oc1ccc(CCCCc2ccc(Cl)cc2)cc1O | 0.8 | 13.4 | –
6 | Oc1ccc(CCCCc2ccc(O)c(O)c2)cc1 | 1 | 36.2 | 9.4
7 | CC(Cc1ccc(O)c(O)c1)C(C)Cc1ccc(O)c(O)c1 (stereo not drawn) [NORDIHYDROGUAIARETIC ACID] | – | 24.6 | –
8 | Oc1ccc(CCCCc2ccc(Cl)c(Cl)c2)cc1O | 1 | 21.5 | –
9 | Oc1cc2c(cc1O)C(c1ccccc1)CCC2 (stereo not drawn) | 1 | 12.3 | –
